Active and inactive are the calls of the source. No cut-off for these calls is given here.
Legend:
[1] = target: T1, Amine oxidase [flavin-containing] B (Homo sapiens, UniProt P27338); test: Inhibition of human full length recombinant MAO-B expressed in insect cells using kynuramine as substrate; type: cell-based
T1 sequence (P27338 whole entry): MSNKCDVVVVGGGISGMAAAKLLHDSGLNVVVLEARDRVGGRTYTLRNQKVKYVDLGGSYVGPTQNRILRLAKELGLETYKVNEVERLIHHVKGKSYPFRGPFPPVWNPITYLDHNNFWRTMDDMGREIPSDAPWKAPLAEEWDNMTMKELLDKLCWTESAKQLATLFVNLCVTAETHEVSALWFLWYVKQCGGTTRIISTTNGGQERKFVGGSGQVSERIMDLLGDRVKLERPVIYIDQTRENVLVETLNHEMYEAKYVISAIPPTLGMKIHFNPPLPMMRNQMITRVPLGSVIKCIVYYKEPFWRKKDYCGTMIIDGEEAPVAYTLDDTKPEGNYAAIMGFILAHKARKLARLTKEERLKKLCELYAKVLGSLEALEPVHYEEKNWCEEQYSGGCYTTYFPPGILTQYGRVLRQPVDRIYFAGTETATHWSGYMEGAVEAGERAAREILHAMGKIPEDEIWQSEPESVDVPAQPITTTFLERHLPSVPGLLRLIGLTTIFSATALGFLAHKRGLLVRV

PC-3 [2] = test: Induction of cell death in LSD1 knockdown human PC-3 cells assessed as activation of procaspase-3 at 1.25 to 10 uM by Western blot analysis; type: functional, cell-based; conditions: dose 1.25-10 µM
PC-3 [3] = test: Upregulation of acetyl-tubulin in human PC-3 cells at 0.625 to 5 uM by Western blot analysis; type: functional, cell-based; conditions: dose 0.625-5 µM
Homo sapiens = species on record: Homo sapiens; test: Selectivity ratio of IC50 for human HDAC9 to IC50 for human HDAC6
DU-145 = test: Antitumor activity against human DU-145 cells xenografted in athymic nude mouse assessed as tumor growth inhibition at 200 mg/kg, po administered twice daily and measured upto 60 days by caliper method relative to control; type: functional; conditions: DU-145, 1440 h, time <= 60 day, read-out: TGI
[4] = target: T2, Protein deacetylase HDAC6 (Homo sapiens, UniProt Q9UBN7); test: Inhibition of human HDAC6 (379 to 382 residues) using RHKKAc as flurogenic substrate
T2 sequence (Q9UBN7 whole entry): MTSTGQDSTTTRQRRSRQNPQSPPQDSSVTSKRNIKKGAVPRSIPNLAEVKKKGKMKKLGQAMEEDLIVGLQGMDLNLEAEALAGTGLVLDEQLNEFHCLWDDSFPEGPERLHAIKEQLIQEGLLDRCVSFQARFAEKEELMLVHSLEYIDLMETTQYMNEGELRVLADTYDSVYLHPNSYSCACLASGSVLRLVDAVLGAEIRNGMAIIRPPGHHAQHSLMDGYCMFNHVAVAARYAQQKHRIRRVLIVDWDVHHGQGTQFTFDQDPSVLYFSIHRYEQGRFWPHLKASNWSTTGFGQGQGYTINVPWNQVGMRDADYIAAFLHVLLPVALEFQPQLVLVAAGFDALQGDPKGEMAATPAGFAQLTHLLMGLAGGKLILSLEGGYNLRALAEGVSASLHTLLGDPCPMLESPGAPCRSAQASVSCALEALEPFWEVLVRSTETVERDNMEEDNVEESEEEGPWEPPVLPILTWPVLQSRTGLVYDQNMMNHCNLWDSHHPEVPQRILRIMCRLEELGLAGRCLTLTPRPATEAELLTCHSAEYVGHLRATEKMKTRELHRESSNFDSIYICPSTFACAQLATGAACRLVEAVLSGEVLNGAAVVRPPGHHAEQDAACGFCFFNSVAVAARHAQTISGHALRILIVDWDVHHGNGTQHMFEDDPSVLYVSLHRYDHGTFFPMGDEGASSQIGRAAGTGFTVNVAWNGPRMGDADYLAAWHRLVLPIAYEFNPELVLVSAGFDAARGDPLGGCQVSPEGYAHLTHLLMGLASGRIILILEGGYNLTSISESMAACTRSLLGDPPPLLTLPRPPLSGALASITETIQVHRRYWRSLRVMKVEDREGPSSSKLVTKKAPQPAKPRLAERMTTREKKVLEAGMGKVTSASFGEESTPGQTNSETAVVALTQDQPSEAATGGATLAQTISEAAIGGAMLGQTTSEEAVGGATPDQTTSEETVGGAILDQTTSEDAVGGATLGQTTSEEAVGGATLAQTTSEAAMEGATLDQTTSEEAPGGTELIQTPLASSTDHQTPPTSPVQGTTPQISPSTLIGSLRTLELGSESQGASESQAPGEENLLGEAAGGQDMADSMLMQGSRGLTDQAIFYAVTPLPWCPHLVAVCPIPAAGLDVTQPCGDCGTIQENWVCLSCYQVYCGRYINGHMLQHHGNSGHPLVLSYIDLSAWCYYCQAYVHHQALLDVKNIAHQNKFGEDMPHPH

Histone deacetylase 9 = Histone deacetylase 9 (Homo sapiens, UniProt Q9UKV0); test: Inhibition of human HDAC9 using Boc-Lys(trifluoroacetyl)-AMC as flurogenic substrate
[5] = Half life in Sprague-Dawley rat at 25 mg/kg, po administered once via gavage measured upto 24 hrs post dose by UPLC-MS/MS analysis; type: ADME, organism-based; conditions: in vivo
Histone deacetylase 2 = Histone deacetylase 2 (Homo sapiens, UniProt Q92769); test: Inhibition of human HDAC2 (379 to 382 residues) using RHKKAc as flurogenic substrate
PC-3 [6] = test: Antitumor activity against human PC-3 cells xenografted in athymic nude mouse assessed as tumor growth inhibition at 50 mg/kg, po qd measured upto 25 days by caliper method relative to control; type: functional; conditions: PC-3, 600 h, time <= 25 day, read-out: TGI
[7] = C0 in Sprague-Dawley rat at 2 mg/kg, iv administered as single dose through tail vein measured upto 24 hrs post dose by UPLC-MS/MS analysis; type: ADME, organism-based; conditions: in vivo
[8] = Metabolic stability in human hepatocyte assessed as parent compound remaining at 10 uM incubated for 30 mins by LC-MS/MS analysis; type: ADME, cell-based; conditions: hepatocytes, read-out: Stability
[9] = Half life in Sprague-Dawley rat at 2 mg/kg, iv administered as single dose through tail vein measured upto 24 hrs post dose by UPLC-MS/MS analysis; type: ADME, organism-based; conditions: in vivo
PC-3 [10] = test: Downregulation of LSD1 in human PC-3 cells at 1.25 to 10 uM incubated for 48 hrs by Western blot analysis; type: functional, cell-based; conditions: dose 1.25-10 µM
[11] = Oral bioavailability in Sprague-Dawley rat at 25 mg/kg formulated using SMEDDS administered once via gavage measured upto 24 hrs post dose by UPLC-MS/MS analysis; type: ADME, organism-based; conditions: in vivo
PC-3 [12] = test: Induction of apoptosis in human PC-3 cells at 1.25 to 10 uM incubated for 48 hrs by Western blot analysis; type: functional, cell-based; conditions: dose 1.25-10 µM
[13] = Metabolic stability in human hepatocyte assessed as intrinsic clearance at 10 uM by LC-MS/MS analysis; type: ADME, cell-based; conditions: hepatocytes, read-out: CLH
[14] = Volume of distribution at steady state in Sprague-Dawley rat at 2 mg/kg, iv administered as single dose through tail vein measured upto 24 hrs post dose by UPLC-MS/MS analysis; type: ADME, organism-based; conditions: in vivo, read-out: Vdss

Sequence of Histone deacetylase 9 (Q9UKV0 whole entry): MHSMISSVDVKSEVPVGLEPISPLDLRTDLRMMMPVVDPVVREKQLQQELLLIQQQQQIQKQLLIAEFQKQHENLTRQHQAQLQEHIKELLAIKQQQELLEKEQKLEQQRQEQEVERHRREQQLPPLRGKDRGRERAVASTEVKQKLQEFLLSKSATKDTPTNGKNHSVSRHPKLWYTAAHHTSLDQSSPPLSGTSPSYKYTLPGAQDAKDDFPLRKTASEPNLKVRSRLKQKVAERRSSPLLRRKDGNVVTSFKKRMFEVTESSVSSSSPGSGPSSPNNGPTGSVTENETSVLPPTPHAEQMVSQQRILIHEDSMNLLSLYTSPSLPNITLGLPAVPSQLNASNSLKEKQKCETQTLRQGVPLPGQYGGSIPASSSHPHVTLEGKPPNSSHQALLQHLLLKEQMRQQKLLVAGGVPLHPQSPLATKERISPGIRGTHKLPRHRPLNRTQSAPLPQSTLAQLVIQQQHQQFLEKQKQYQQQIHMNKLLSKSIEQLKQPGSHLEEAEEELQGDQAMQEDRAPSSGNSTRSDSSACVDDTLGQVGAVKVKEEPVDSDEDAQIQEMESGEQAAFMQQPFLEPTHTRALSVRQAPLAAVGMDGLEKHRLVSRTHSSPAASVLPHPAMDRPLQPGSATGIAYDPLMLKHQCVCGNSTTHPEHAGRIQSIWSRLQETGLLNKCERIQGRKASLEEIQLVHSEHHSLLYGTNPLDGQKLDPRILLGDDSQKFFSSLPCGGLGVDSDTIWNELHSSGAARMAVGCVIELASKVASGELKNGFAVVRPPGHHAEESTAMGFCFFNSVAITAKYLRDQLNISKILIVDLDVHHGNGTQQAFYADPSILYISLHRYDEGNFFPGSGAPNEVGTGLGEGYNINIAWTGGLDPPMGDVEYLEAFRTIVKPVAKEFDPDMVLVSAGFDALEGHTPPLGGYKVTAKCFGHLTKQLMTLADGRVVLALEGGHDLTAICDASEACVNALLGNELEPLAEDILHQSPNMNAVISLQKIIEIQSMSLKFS
Sequence of Histone deacetylase 2 (Q92769 whole entry, the tested form may be a part): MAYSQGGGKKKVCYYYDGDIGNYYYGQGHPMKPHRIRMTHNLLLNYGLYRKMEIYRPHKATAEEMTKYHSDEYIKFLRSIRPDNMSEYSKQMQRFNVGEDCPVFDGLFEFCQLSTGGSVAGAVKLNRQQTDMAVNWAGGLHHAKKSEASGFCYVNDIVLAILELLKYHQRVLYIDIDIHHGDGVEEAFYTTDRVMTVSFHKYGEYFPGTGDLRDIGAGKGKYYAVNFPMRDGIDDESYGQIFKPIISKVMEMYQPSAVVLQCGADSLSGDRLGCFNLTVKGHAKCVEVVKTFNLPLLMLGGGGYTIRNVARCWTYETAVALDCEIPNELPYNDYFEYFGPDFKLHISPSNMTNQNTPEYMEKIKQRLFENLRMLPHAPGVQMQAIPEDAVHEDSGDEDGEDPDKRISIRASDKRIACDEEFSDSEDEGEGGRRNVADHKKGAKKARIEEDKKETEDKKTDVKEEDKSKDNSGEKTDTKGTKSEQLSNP

IC50 [1]: 67000 nM | Ratio IC50 (Homo sapiens): > 500 | IC50 [4]: 20 nM | IC50 (Histone deacetylase 9): > 10000 nM | half-life [5]: 3.4 h | IC50 (Histone deacetylase 2): 1540 nM | C0 at 24 h [7]: 38.1 ng/mL | remaining at 0.5 h, 10 µM [8]: 103% | half-life [9]: 8.1 h | bioavailability [11]: 62.1% | CLint scaled at 10 µM [13]: 9.78 mL/min/kg | Vd [14]: 247 L/kg
Structure (SMILES): C#CCN(C)Cc1cccc(NC(=O)CCCCCCC(=O)NO)c1
Activity (PC-3 [2]): Active | Activity (PC-3 [3]): Active | inhibition in vivo at 200 mg/kg (DU-145): 80.8% | inhibition in vivo at 50 mg/kg (PC-3 [6]): 36.9% | Activity (PC-3 [10]): Active | Activity (PC-3 [12]): Active
